In EP0237239A2, “New compounds” (THE WELLCOME FOUNDATION LIMITED, priority 1986, dated 1987):
Where a name gives a salt, the structure may show the parent alone.

Target: T1, angiotension converting enzyme (Cavia porcellus, UniProt H0UWL7)
T1 construct: from tissue; host or cells: guinea pig ileum
T1 sequence (H0UWL7 33-1302): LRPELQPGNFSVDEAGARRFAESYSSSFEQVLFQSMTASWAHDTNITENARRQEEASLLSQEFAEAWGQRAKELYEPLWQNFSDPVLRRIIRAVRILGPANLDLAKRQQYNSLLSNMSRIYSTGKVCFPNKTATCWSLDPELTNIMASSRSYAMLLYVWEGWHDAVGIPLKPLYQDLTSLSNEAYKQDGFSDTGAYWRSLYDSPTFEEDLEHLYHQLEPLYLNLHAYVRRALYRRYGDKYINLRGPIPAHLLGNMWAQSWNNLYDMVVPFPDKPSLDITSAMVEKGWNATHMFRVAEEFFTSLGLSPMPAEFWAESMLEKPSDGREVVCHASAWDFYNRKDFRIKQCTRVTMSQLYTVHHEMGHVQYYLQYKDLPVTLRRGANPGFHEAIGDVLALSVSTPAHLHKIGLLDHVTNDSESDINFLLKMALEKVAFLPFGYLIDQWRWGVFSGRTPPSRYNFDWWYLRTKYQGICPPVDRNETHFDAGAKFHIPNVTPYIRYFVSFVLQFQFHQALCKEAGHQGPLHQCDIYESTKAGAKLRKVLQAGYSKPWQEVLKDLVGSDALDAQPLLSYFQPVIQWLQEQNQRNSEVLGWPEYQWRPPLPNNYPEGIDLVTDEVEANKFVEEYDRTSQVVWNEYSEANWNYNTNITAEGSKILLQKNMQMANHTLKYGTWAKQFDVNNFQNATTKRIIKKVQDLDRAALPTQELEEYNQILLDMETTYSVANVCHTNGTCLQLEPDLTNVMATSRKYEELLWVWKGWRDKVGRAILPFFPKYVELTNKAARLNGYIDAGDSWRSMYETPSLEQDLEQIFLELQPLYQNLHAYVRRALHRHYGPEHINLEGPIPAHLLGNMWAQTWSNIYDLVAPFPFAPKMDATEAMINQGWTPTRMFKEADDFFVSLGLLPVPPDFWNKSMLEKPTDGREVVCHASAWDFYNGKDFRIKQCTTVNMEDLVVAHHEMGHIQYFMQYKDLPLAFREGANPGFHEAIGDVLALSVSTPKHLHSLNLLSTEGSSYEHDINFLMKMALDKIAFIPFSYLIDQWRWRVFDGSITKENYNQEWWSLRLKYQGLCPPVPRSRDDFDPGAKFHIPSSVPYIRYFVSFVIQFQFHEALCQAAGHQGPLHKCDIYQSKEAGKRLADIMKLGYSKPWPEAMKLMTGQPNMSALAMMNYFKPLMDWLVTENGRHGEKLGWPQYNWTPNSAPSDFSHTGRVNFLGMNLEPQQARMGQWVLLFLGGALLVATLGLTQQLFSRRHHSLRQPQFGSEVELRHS
Assay: angiotensin converting enzyme inhibition in guinea pig ileum (inhibition of contractile responses to Angiotensin I)
Format: cell-based
Conditions: dose-dependent inhibition of contractile responses to Angiotensin I, in vitro, read-out: EC50 (the source's name)
Text: (b) ACE inhibition in vitro
In any assay for angiotension converting enzyme inhibition in guinea pig ileum, dose-dependent inhibition of contractile responses to Angiotensin I gave the following results: […]

| IC50 | Structure (SMILES) |
| --- | --- |
| 0.0096 µM | CC(C)NCC(O)COc1cccc2ccc(CNCCCC[C@H](NC(C)C(=O)N3CCC[C@H]3C(=O)O)C(=O)O)cc12 (stereo partly drawn) [Example 5, N-(1(S)-Carboxy-5-[8-(2(S,R)-hydroxy-3-isopropylaminopropoxy)naphth-2-ylmethylamino]pentyl)-(S,R)-alanyl-(S)-proline tristrifluoroacetate] |
| 0.0135 µM | CC(C)NCC(O)COc1cccc2c(OCC(=O)NCCCC[C@H](NC(C)C(=O)N3CCC[C@H]3C(=O)O)C(=O)O)cccc12 (stereo partly drawn) [Example 2, N-(l(S)-Carboxy-5-(2-[5-(2(S,R)-hydroxy-3-isopropylaminopropoxy)-naphth-1-yloxy]acetamido)pentyl)-(S,R)-alanyl-(S)-proline dihydrochloride acetate hemihydrate] |
